Test results: patent US20020183366A1, “Cyclooxygenase-2 inhibitors, compositions and methods of use” (priority 2001, published 2002)

Experiments:
human COX-2 = molecular target: T1, human COX-2 (Homo sapiens, UniProt P35354); assay: COX Inhibitor Screening Assay, COX-2 activity; format: biochemical
T1 construct: purchased Cayman Chemical, Ann Arbor, Mich
T1 sequence (P35354 18-604): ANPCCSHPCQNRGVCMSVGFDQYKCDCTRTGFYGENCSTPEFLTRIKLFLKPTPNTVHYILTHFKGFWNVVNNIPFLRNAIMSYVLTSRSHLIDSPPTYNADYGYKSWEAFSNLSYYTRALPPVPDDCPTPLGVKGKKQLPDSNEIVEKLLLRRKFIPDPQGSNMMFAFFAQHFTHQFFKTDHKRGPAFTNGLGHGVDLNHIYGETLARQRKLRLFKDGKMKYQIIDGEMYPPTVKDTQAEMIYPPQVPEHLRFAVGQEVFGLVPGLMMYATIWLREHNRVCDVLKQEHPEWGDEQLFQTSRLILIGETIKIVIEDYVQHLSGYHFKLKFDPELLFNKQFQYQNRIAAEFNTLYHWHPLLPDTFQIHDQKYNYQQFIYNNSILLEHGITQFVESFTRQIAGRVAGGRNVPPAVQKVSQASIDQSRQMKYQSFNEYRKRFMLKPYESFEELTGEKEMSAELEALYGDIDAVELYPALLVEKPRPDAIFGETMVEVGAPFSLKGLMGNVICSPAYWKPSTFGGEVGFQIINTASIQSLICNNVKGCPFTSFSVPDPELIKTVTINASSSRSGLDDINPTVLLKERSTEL
Method: (§1) The ovine COX-1 and human CO-2 activities and the measurement of the prostaglandin products synthesized were performed using the COX Inhibitor Screening Assay (Cayman Chemical, Ann Arbor, Mich., which also contained the Prostaglandin Screening EIA Kit, used for prostaglandin quantification). The test compounds were dissolved at 50 times the highest final reaction concentration in DMSO or any other suitable solvent as stock solutions. These stock solutions were then diluted in the same solvent. Eight glass test tubes (13×100 mm) were placed in a 37° C. water bath. To each test tube was added 950 μL of reaction buffer (0.1 M Tris-HCl, pH 8.0, containing 5 mM EDTA, and 2 mM phenol), 10 μL of 100 µM heme solution, and 10 μL (5 units) of either ovine COX-1 or human COX-2 and the resulting mixture was incubated with the enzyme for 2 minutes. Twenty μL of the solvent was added to one tube (100% initial activity or solvent control) and 20 μL of each dilution of the test compound was added to one tube each. Each tube was vortexed immediately after the addition. The enzyme was incubated with the inhibitor for 3.5 minutes at 37° C. The enzymatic reaction was then initiated by the addition of 10 μL of freshly prepared 10 mM arachidonic acid (neutralized with KOH), vortexed and then incubated for 2 minutes at 37° C. […]

ovine COX-1 = molecular target: T2, ovine COX-1 (Ovis aries, UniProt P05979); assay: COX Inhibitor Screening Assay, COX-1 activity; format: biochemical; details: 100 μM test compound
T2 construct: purchased Cayman Chemical, Ann Arbor, Mich
T2 sequence (P05979 25-600): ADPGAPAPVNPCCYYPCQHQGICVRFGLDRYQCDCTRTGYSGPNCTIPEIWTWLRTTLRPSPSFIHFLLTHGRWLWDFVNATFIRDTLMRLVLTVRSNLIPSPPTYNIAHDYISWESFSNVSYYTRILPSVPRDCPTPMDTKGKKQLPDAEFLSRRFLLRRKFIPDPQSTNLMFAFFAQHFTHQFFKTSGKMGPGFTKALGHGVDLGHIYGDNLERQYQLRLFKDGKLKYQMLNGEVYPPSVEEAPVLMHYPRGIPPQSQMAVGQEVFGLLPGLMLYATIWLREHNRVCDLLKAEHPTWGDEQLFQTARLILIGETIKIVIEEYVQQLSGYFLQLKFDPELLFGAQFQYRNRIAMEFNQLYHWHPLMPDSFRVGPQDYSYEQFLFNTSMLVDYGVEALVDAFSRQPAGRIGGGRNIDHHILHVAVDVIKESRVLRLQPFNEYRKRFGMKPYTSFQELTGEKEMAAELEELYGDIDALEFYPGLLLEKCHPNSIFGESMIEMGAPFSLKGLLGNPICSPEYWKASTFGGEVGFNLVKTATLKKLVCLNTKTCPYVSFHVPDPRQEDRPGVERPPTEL
Method: as §1

O=C1OCC(c2ccc(S(=O)(=O)CF)cc2)=C1c1ccccc1 [Example 1, 4-(4-((Fluoromethyl)sulfonyl)phenyl)-3-phenyl-5-hydrofuran-2-one]
COX-2 Inhibition (% at 10 μM) (human COX-2; 10 μM test compound, human COX-2): 40% | COX-2 selectivity (human COX-2; COX-2 versus COX-1, from Table 1): has COX-2 selectivity | COX-1 Inhibition (% at 100 μM) (ovine COX-1): 30%
